Results on 20 molecules are retold here after PubChem BioAssay AID504669 (Sanford-Burnham Center for Chemical Genomics, 2011).

The target of the assay is Breast cancer type 1 susceptibility protein (Homo sapiens) + BRCA1-associated RING domain protein 1 (Homo sapiens) (UniProt P38398+Q99728). Kind of assay: Brca1-Bard1 BiLC signal decrease – cell-based, luminescence, counter-screen for Mdm2/MdmX interaction inhibitor project, dose response (AID 504669). Particulars: SaOS-2 Brca1/Bard1 split-luciferase complementation. In general terms: A counterscreen serves to expose hits that act by an unwanted route or on another target.
Sequence of Breast cancer type 1 susceptibility protein (Homo sapiens) + BRCA1-associated RING domain protein 1 (Homo sapiens) (P38398 whole entry, looked up, the tested form may be a part): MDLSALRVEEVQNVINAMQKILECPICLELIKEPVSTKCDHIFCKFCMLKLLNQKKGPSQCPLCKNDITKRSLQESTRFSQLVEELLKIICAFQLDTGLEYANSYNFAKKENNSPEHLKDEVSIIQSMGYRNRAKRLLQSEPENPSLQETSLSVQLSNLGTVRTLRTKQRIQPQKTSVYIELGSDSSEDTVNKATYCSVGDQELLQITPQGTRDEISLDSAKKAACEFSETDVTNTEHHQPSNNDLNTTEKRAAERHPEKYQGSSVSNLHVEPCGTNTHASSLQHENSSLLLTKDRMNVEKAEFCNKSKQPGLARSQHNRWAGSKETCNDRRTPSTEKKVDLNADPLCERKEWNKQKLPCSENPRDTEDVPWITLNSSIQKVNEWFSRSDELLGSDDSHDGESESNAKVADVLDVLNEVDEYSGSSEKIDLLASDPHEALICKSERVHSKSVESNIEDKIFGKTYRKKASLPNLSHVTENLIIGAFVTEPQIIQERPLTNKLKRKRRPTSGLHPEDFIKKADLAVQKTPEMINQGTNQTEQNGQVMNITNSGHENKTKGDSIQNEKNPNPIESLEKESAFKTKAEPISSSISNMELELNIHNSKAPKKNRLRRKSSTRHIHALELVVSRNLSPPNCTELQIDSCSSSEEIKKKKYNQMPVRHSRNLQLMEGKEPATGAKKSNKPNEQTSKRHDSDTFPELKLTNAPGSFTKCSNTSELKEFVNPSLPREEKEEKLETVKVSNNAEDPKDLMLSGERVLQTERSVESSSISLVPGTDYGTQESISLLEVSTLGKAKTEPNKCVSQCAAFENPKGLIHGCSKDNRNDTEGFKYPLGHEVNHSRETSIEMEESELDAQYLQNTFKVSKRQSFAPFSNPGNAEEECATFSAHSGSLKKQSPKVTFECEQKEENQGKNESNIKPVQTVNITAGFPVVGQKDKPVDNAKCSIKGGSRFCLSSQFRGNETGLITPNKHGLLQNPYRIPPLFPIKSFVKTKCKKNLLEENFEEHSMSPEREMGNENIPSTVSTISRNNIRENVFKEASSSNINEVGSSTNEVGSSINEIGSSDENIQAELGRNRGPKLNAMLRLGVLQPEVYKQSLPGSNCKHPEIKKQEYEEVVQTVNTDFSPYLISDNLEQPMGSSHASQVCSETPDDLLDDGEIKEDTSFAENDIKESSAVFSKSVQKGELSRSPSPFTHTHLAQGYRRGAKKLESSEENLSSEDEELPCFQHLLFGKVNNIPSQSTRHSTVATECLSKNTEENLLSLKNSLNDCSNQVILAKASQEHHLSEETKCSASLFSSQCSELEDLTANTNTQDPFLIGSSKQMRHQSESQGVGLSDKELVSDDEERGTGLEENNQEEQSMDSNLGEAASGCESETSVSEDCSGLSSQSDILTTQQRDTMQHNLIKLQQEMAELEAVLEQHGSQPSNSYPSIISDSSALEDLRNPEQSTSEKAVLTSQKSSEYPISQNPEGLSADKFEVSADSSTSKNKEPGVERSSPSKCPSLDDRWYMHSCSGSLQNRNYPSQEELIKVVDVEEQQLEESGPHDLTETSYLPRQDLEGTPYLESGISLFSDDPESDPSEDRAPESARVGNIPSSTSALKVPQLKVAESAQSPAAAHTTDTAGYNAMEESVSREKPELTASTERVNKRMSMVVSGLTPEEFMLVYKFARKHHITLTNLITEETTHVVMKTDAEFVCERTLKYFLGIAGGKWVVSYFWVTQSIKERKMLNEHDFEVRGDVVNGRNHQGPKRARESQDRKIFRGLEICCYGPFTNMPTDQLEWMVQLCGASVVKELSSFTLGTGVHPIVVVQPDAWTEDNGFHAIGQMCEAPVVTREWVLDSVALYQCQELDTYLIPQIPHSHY
Sequence of Breast cancer type 1 susceptibility protein (Homo sapiens) + BRCA1-associated RING domain protein 1 (Homo sapiens) (Q99728 whole entry, looked up, the tested form may be a part): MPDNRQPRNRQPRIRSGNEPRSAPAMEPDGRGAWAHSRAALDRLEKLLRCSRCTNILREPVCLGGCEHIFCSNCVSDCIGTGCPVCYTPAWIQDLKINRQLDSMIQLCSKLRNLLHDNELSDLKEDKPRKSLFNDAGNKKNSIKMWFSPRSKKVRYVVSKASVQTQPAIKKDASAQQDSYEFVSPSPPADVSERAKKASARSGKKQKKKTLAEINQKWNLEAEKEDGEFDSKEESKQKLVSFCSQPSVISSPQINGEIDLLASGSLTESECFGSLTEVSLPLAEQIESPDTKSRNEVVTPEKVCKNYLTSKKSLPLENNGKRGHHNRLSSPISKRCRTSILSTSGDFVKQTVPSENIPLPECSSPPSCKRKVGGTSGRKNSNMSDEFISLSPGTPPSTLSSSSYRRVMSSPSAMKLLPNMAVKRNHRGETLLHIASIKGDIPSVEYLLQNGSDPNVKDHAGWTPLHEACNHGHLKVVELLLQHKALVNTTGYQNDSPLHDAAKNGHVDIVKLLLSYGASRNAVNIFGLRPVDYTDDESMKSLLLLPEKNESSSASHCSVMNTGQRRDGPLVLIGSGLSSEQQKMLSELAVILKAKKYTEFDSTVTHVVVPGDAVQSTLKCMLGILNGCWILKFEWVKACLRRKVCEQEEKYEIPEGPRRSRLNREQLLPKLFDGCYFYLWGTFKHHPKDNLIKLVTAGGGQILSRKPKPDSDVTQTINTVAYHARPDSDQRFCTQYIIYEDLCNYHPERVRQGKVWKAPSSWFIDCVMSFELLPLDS

With `C/C(=N\Nc1cc(C)nc(-c2ccccc2O)n1)c1ccccc1O`, the IC50 (usually the concentration needed to halve the response being measured) was 5.35 µM.

Regarding `CCN1C/C(=C/c2ccc(OC)c(O)c2)C(=O)/C(=C/c2ccc(OC)c(O)c2)C1`, the IC50 was 9.78 µM.

For `O=C(CN1CCCc2ccccc21)N/N=C/c1c(O)ccc2ccccc12`, the IC50 was 1.97 µM.

Take `CC1(C)C(=O)Nc2ccccc2N1C(=O)Cn1ncc(Cl)c(Cl)c1=O`: the IC50 is 8.39 µM.

With `COc1ccc(-c2cc3c(=O)n(CC(=O)NCCCN4CCC(N5CCCCC5)CC4)nc(C)n3n2)cc1`, the IC50 is 10.6 µM.

Regarding `CCOc1cc(N2CCOCC2)c(OCC)cc1NC(=O)COc1cccc2cccnc12`, the IC50 was 5.07 µM.

In the case of `CCN(CC)S(=O)(=O)c1ccc(NC(=O)c2cccnc2Cl)c(NC(=O)c2cccnc2Cl)c1`, the IC50 was 10.1 µM.

Regarding `CC(=O)c1ccc(-c2ccc(C(=O)Nc3nc(-c4ccccn4)cs3)o2)cc1`, the IC50 is 4.85 µM.

`O=[N+]([O-])c1ccccc1S(=O)(=O)Nc1cccc2cccnc12`: the IC50 was 4.37 µM.

On to `COc1cc(-c2nc(-c3ccc(NC(=O)c4ccc5c(c4)OCO5)cc3)no2)cc(OC)c1OC`, for which the IC50 was 13.4 µM.

On to `CCOC(=O)/C=C/C(=O)OCC(=O)NC(c1ccccc1)c1ccccc1`, for which the IC50 is 3.9 µM.

In the case of `CCOC(=O)c1ccc(Nc2nc(N)c3cc(OC)c(OC)cc3n2)cc1`, the IC50 was 14.3 µM.

Regarding `O=c1oc2ccccc2cc1-c1cn(-c2ccccc2)c(=S)[nH]1`, the IC50 is 0.00353 µM.

Regarding `Cn1nc([N+](=O)[O-])nc1Sc1nnc(-c2ccccc2)o1`, the IC50 is 12.3 µM.

On to `Cc1cccn2c(=O)c3cc(C(=O)NCCc4ccccc4)c(=N)n(Cc4ccco4)c3nc12`, for which the IC50 is 4.13 µM.

As for `CC(C)c1cccc(O)c(=O)c1`, the concentration for half-maximal inhibition (IC50) was 3.89 µM.

For the molecule `COCCn1c(C)cc(C2=NNC(=Nc3ccccc3F)SC2)c1C`, the IC50 was 0.493 µM.

Turning to `Cc1nc(NC2=NCN(CCCN3CCOCC3)CN2)nc2c(C)cccc12`, the IC50 was 5.59 µM.

With `O=C(/C=C/c1c(F)cccc1Cl)c1ccc(O)cc1`, the IC50 was 6.64 µM.

Regarding `COc1ccc2c(c1)C1(Nc3ccccc3-c3nc4ccccc4n31)C(=O)N2C` (stereo not given), the IC50 is 1.18 µM.
